Measured values published in patent US4564609A, “4-Substituted-2-azetidinone compound, process of producing the compounds, and medicaments containing the compounds” (Yamanouchi Pharmaceutical Co., Ltd., priority 1983, dated 1986).
Where two headings read alike, the source gives them in different places.

Columns and labels:
[1] = tested on: male mice; assay: Disturbance of consciousness induced by concussive head injury (Experiment 2); assay type: in vivo; settings: i.v. 10 min before concussive head injury, dose shortening spontaneous movement time of control group by 50%; for ED50: Mus musculus, iv, read-out: Onset time of spontaneous movement ED50%
Procedure: Disturbance of consciousness induced by concussive head injury:
Nine male mice weighing 18 to 22 g were used for each dosage of the test compounds. An acrylate weight containing lead (20.5 g, 19 mm in both diameter and thickness) was dropped to the head of mice from a 18 cm height. Mice were induced loss of consciousness and they remained motionless for some period. The time from the shock up to the onset of spontaneous movement was recorded as the spontaneous movement time. Test compounds were administered intravenously 10 min. before adding concussive head injury and effects of test compounds were evaluated as ED50%, the dose required to shorten by 50% the spontaneous movement time of control group.

[2] = tested on: male mice; assay: Pentobarbital-induced hypothermia (Experiment 1); assay type: in vivo; settings: i.v. 10 min after pentobarbital 55 mg/kg i.p.; rectal temperature 30 min after test compound; dose reducing hypothermia of control group by 1.5° C.
Procedure: Pentobarbital-induced hypothermia:
Nine male mice weighing 18 to 22 g were used for each dosage of the test compounds. Mice were given i.v. various doses of TRH or tested compounds 10 min. after pentobarbital (55 mg/kg i.p.). Rectal temperature was measured before pentobarbital dosing and immediately before and 30 min. after the test compounds. Effects of test compounds were evaluated as ED1.5° C., the dose required to reduce by 1.5° C. pentobarbital-hypothermia of control group of mice which received only pentobarbital and saline.

[3] = tested on: male mice; assay: Acute toxicity (Experiment 3); settings: intravenous
[4] = tested on: male mice; settings: mouse, in vivo, iv

| Structure (SMILES) | Onset time of spontaneous movement ED50% [1] [mg/kg] | Reversal effect against pentobarbital-hypothermia ED1.5° C. [2] [mg/kg] | LD50 (i.v.) [3] [mg/kg] | ED50 [1] [mg/kg] | LD50 (i.v.) [4] |
| --- | --- | --- | --- | --- | --- |
| NC(=O)[C@@H]1CCCN1C(=O)[C@H](Cc1cnc[nH]1)NC(=O)[C@@H]1CCC(=O)N1 [TRH, L-pyroglutamyl-L-histidyl-L-prolinamide, reference compound] | 2.5 | 0.1 | 751 | – | – |
| O=C1C[C@@H](C(=O)N[C@@H](Cc2c[nH]cn2)C(=O)N2CCC[C@H]2C(=O)NCCO)N1 [Example 4, N^α -[(S)-2-azetidinone-4-carbonyl]-L-histidyl-N-(2-hydroxyethyl)-L-prolinamide] | – | – | – | 0.35 | – |
| NC(=O)[C@@H]1CCCN1C(=O)[C@H](Cc1c[nH]cn1)NC(=O)[C@@H]1CC(=O)N1 [Example 1, N^α -[(S)-2-azetidinone-4-carbonyl]-L-histidyl-L-prolinamide] | – | 0.01 | – | 0.1 | higher than 1493 mg/kg |
| Cn1cnc(CC(NC(=O)C2CC(=O)N2)C(=O)N2CCCC2C(N)=O)c1 [Example 19, N^α -[(s)-2-azetidinone-4-carbonyl]-N^.tau. -methyl-L-histidyl-L-prolinamide] | – | 0.004 | – | – | – |
| NC(=O)[C@@H]1CSCN1C(=O)[C@H](Cc1c[nH]cn1)NC(=O)[C@@H]1CC(=O)N1 [Example 6, 3-[N^α -[(S)-2-azetidinone-4-carbonyl]-L-histidyl]-L-thiazolidine-4-carboxamide] | – | 0.05 | – | – | – |
